Measurements taken from US20230263822A1, “MODULATION OF FACTOR 11 EXPRESSION” (Ionis Pharmaceuticals, Inc., priority 2008, published 2023).
Strand notation (5' to 3'): a small letter for the sugar, then the base; units joined by * are phosphorothioate-linked, units joined directly phosphodiester-linked; [ ] holds rarer units or linkages, { } end groups; capitals alone tell only the bases. e = 2'-O-(2-methoxyethyl) (MOE); [5mC] = 5-methylcytosine; d = 2'-deoxy (DNA)

Legend:
Type in all cases: cell-based
human Factor 11 mRNA [1] = experiment: Antisense inhibition of human Factor 11 in HepG2 cells, lipofectin, 75 nM (Example 1); conditions: 75 nM antisense oligonucleotide, ~24 h, relative to untreated control cells, gapmers targeted to SEQ ID NO: 1
How it was run: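 HepG2 cells transfected via lipofectin with 75 nM antisense oligonucleotide (5-10-5 MOE gapmers, 20-mers, phosphorothioate, 5-methylcytidines), treated ~24 h. Factor 11 mRNA quantified by real-time PCR, normalised to RIBOGREEN total RNA; percent inhibition versus untreated cells.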

human Factor 11 mRNA [2] = experiment: Dose-dependent antisense inhibition of human Factor 11 in HepG2 cells, lipofectin 9.375-150 nM (Example 2); conditions: ~16 h
Experimental: Cells were plated at a density of 10,000 cells per well and transfected using lipofectin reagent with 9.375 nM, 18.75 nM, 37.5 nM, 75 nM, and 150 nM concentrations of antisense oligonucleotide, as specified in Table 3. After a treatment period of approximately 16 hours, RNA was isolated from the cells and Factor 11 mRNA levels were measured by quantitative real-time PCR. Human Factor 11 primer probe set RTS 2966 (forward sequence: […], incorporated herein as SEQ ID NO: 3; reverse sequence: […], incorporated herein as SEQ ID NO: 4; probe sequence: TTGTCTACTGAAGCACACCCAAACAGGGAX, incorporated herein as SEQ ID NO: 5) was used to measure mRNA levels. Factor 11 mRNA levels were adjusted according to total RNA content, as measured by RIBOGREEN. Results are presented as percent inhibition of Factor 11, relative to untreated control cells.

human Factor 11 mRNA [3] = experiment: Antisense inhibition of human Factor 11 in HepG2 cells by microwalk gapmers, lipofectin, 75 nM (Example 3)
How it was run: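 HepG2 cells (10,000/well) were transfected via lipofectin with 75 nM 20-mer MOE gapmers (phosphorothioate, 5-methyl-C) for about 24 h. Factor 11 mRNA was measured by qRT-PCR, normalized to RIBOGREEN total RNA, and given as percent inhibition versus untreated cells.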

human Factor 11 mRNA [4] = experiment: Dose-dependent inhibition of human Factor 11 in HepG2 cells, lipofectin 9.375-75 nM (Example 4); conditions: for percent inhibition of Factor 11 at 9.375 nM / percent inhibition of Factor 11 at 18.75 nM / percent inhibition of Factor 11 at 37.5 nM / percent inhibition of Factor 11 at 75 nM: relative to untreated control cells
How it was run: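 HepG2 cells transfected via lipofectin with antisense oligonucleotide at 9.375, 18.75, 37.5 or 75 nM for about 16 h. Factor 11 mRNA quantified by real-time RT-PCR (primer probe set RTS 2966) and normalized to total RNA (RIBOGREEN). Results expressed as percent inhibition versus untreated cells.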

human Factor 11 mRNA [5] = experiment: Dose-dependent inhibition of human Factor 11 in HepG2 cells, electroporation 0.7-20 uM (Example 4); conditions: for percent inhibition of Factor 11 at 0.7 μM / percent inhibition of Factor 11 at 2.2 μM / percent inhibition of Factor 11 at 6.7 μM / percent inhibition of Factor 11 at 20 μM: relative to untreated control cells
How it was run: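 HepG2 cells electroporated with antisense gapmers at 0.7, 2.2, 6.7 and 20 μM, treated ~16 h. Factor 11 mRNA quantified by qRT-PCR (primer probe set RTS 2966), normalised to RIBOGREEN total RNA; expressed as percent inhibition versus untreated control cells.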

human Factor 11 mRNA [6] = experiment: Antisense inhibition of human Factor 11 in HepG2 cells, electroporation, 8,000 nM (Example 30); conditions: electroporation, 8,000 nM antisense oligonucleotide
Experimental: These microwalk gapmers were tested in vitro. Cultured HepG2 cells at a density of 20,000 cells per well were transfected using electroporation with 8,000 nM antisense oligonucleotide. After a treatment period of approximately 24 hours, RNA was isolated from the cells and Factor 11 mRNA levels were measured by quantitative real-time PCR. Factor 11 mRNA levels were adjusted according to total RNA content, as measured by RIBOGREEN. Results are presented as percent inhibition of Factor 11, relative to untreated control cells.
The chimeric antisense oligonucleotides in Table 44 were designed as 5-10-5 MOE, 5-8-5 and 6-8-6 MOE gapmers. The first two listed gapmers in Table 44 are the original gapmers (ISIS 416850 and ISIS 416858) from which ISIS 445493-445543 were designed via microwalk, and are designated by an asterisk. The 5-10-5 gapmers are 20 nucleotides in length, wherein the central gap segment is comprised of ten 2′-deoxynucleotides and is flanked on both sides (in the 5′ and 3′ directions) by wings comprising five nucleotides each. The 5-8-5 gapmers are 18 nucleotides in length, wherein the central gap segment is comprised of eight 2′-deoxynucleotides and is flanked on both sides (in the 5′ and 3′ directions) by wings comprising five nucleotides each. The 6-8-6 gapmers are 20 nucleotides in length, wherein the central gap segment is comprised of eight 2′-deoxynucleotides and is flanked on both sides (in the 5′ and 3′ directions) by wings comprising six nucleotides each. For each of the motifs (5-10-5, 5-8-5 and 6-8-6), each nucleotide in the 5′ wing segment and each nucleotide in the 3′ wing segment has a 2′-MOE modification. The internucleoside linkages throughout each gapmer are phosphorothioate (P=S) linkages. All cytidine residues throughout each gapmer are 5-methylcytidines. “Human Target start site” indicates the 5′-most nucleotide to which the gapmer is targeted in the human sequence. “Human Target stop site” indicates the 3′-most nucleotide to which the gapmer is targeted in the human sequence. Each gapmer listed in Table 44 is targeted to SEQ ID NO: 1 (GENBANK Accession No. NM_000128.3). Each gapmer is Table 44 is also fully cross-reactive with the rhesus monkey Factor 11 gene sequence, designated herein as SEQ ID NO: 274 (exons 1-15 GENBANK Accession No. NW_001118167.1). ‘Rhesus monkey start site’ indicates the 5′-most nucleotide to which the gapmer is targeted in the rhesus monkey sequence. ‘Rhesus monkey stop site’ indicates the 3′-most nucleotide to which the gapmer is targeted to the rhesus monkey sequence.

human Factor 11 mRNA [7] = experiment: Dose-dependent inhibition of human Factor 11 in HepG2 cells, electroporation 123.46-10,000 nM (Example 31); conditions: for Percent inhibition of Factor 11 mRNA at 123.47 nM / Percent inhibition of Factor 11 mRNA at 370.37 nM / IC50: electroporation; for Percent inhibition of Factor 11 mRNA at 123.47 nM / Percent inhibition of Factor 11 mRNA at 370.37 nM / Percent inhibition of Factor 11 mRNA at 1,111.11 nM / Percent inhibition of Factor 11 mRNA at 3,333.33 nM / Percent inhibition of Factor 11 mRNA at 10,000.0 nM: approx. 16 hours, relative to untreated control cells; for Percent inhibition of Factor 11 mRNA at 1,111.11 nM: electroporation, 1,111.11 nM; for Percent inhibition of Factor 11 mRNA at 3,333.33 nM: electroporation, 3,333.33 nM; for Percent inhibition of Factor 11 mRNA at 10,000.0 nM: electroporation, 10,000.0 nM; for IC50: Factor 11 mRNA expression
Experimental: Cells were plated at a density of 20,000 cells per well and transfected using electroporation with 123.46 nM, 370.37 nM, 1,111.11 nM, 3,333.33 nM and 10,000 nM concentrations of antisense oligonucleotide, as specified in Table 45. After a treatment period of approximately 16 hours, RNA was isolated from the cells and Factor 11 mRNA levels were measured by quantitative real-time PCR. Human Factor 11 primer probe set RTS 2966 was used to measure mRNA levels. Factor 11 mRNA levels were adjusted according to total RNA content, as measured by RIBOGREEN. Results are presented as percent inhibition of Factor 11, relative to untreated control cells.

[8] = HepG2, lipofectin, ~24 h, gapmers targeted to nucleobases 656 to 704 of SEQ ID NO: 1
[9] = HepG2 cells, lipofectin, gapmers targeted to nucleobases 1275 to 1318 of SEQ ID NO: 1

Row | Substance | % inhibition (human Factor 11 mRNA [1]) | percent inhibition of Factor 11 at 9.375 nM (human Factor 11 mRNA [2]) | percent inhibition of Factor 11 at 18.75 nM (human Factor 11 mRNA [2]) | percent inhibition of Factor 11 at 37.5 nM (human Factor 11 mRNA [2]) | percent inhibition of Factor 11 at 75 nM (human Factor 11 mRNA [2]) | percent inhibition of Factor 11 at 150 nM (human Factor 11 mRNA [2]) | IC50 (human Factor 11 mRNA [2]) | % inhibition (human Factor 11 mRNA [3]; [8]) | Percent inhibition of human Factor 11 mRNA levels (human Factor 11 mRNA [6]) | Percent inhibition of Factor 11 mRNA at 123.47 nM (human Factor 11 mRNA [7]) | Percent inhibition of Factor 11 mRNA at 370.37 nM (human Factor 11 mRNA [7]) | Percent inhibition of Factor 11 mRNA at 1,111.11 nM (human Factor 11 mRNA [7]) | Percent inhibition of Factor 11 mRNA at 3,333.33 nM (human Factor 11 mRNA [7]) | Percent inhibition of Factor 11 mRNA at 10,000.0 nM (human Factor 11 mRNA [7]) | IC50 (human Factor 11 mRNA [7]) | also measured
1 | 413468 (antisense eG*eT*e[5mC]*eT*eA*dG*dG*dT*d[5mC]*d[5mC]*dA*d[5mC]*dA*dT*dA*eA*eA*eT*eG*eT) [compound 413468] | 84% | 14% | 34% | 56% | 78% | 75% | 35 nM | 83% | – | – | – | – | – | – | – | –
2 | 413467 (antisense eG*eG*eT*e[5mC]*e[5mC]*dA*d[5mC]*dA*dT*dA*dA*dA*dT*dG*dT*e[5mC]*eT*eT*eT*eG) [compound 413467] | 91% | 2% | 35% | 49% | 61% | 47% | 43 nM | 92% | – | – | – | – | – | – | – | IC50 (human Factor 11 mRNA [4]): 20 nM; percent inhibition of Factor 11 at 9.375 nM (human Factor 11 mRNA [4]): 35%; percent inhibition of Factor 11 at 18.75 nM (human Factor 11 mRNA [4]): 51%; percent inhibition of Factor 11 at 37.5 nM (human Factor 11 mRNA [4]): 62%; percent inhibition of Factor 11 at 75 nM (human Factor 11 mRNA [4]): 69%; IC50 (human Factor 11 mRNA [5]): 4200 nM; percent inhibition of Factor 11 at 0.7 μM (human Factor 11 mRNA [5]): 5%; percent inhibition of Factor 11 at 2.2 μM (human Factor 11 mRNA [5]): 31%; percent inhibition of Factor 11 at 6.7 μM (human Factor 11 mRNA [5]): 65%; percent inhibition of Factor 11 at 20 μM (human Factor 11 mRNA [5]): 89%
3 | 416857 (antisense e[5mC]*eG*eG*e[5mC]*eA*dT*dT*dG*dG*dT*dG*d[5mC]*dA*d[5mC]*dA*eG*eT*eT*eT*e[5mC]) [compound 416857] | – | – | – | – | – | – | – | – | 91% | 2% | 20% | 35% | 62% | 72% | 2300 nM | % inhibition (human Factor 11 mRNA [3]; [9]): 92%
4 | 412203 (antisense eA*eA*eT*eG*eT*d[5mC]*dT*dT*dT*dG*dT*dT*dG*d[5mC]*dA*eA*eG*e[5mC]*eG*e[5mC]) [compound 412203] | 91% | 29% | 15% | 61% | 77% | 82% | 33 nM | 97% | – | – | – | – | – | – | – | IC50 (human Factor 11 mRNA [4]): 24 nM; percent inhibition of Factor 11 at 9.375 nM (human Factor 11 mRNA [4]): 33%; percent inhibition of Factor 11 at 18.75 nM (human Factor 11 mRNA [4]): 40%; percent inhibition of Factor 11 at 37.5 nM (human Factor 11 mRNA [4]): 62%; percent inhibition of Factor 11 at 75 nM (human Factor 11 mRNA [4]): 74%; IC50 (human Factor 11 mRNA [5]): 2700 nM; percent inhibition of Factor 11 at 0.7 μM (human Factor 11 mRNA [5]): 11%; percent inhibition of Factor 11 at 2.2 μM (human Factor 11 mRNA [5]): 60%; percent inhibition of Factor 11 at 6.7 μM (human Factor 11 mRNA [5]): 70%; percent inhibition of Factor 11 at 20 μM (human Factor 11 mRNA [5]): 91%
5 | 413469 (antisense eT*eG*e[5mC]*e[5mC]*e[5mC]*dT*dT*d[5mC]*dA*dT*dG*dT*d[5mC]*dT*dA*eG*eG*eT*e[5mC]*e[5mC]) [compound 413469] | 84% | 24% | 33% | 53% | 70% | 84% | 33 nM | 86% | – | – | – | – | – | – | – | –
6 | 445503 (antisense eG*e[5mC]*eA*eT*eT*eG*dG*dT*dG*d[5mC]*dA*d[5mC]*dA*dG*eT*eT*eT*e[5mC]*eT*eG) [compound 445503] | – | – | – | – | – | – | – | – | 89% | 0% | 0% | 22% | 36% | 60% | 5900 nM | –
7 | 416849 (antisense eG*e[5mC]*eA*e[5mC]*eA*dG*dT*dT*dT*d[5mC]*dT*dG*dG*d[5mC]*dA*eG*eG*e[5mC]*e[5mC]*eT) [compound 416849] | – | – | – | – | – | – | – | – | 88% | 5% | 5% | 26% | 57% | 68% | 2700 nM | % inhibition (human Factor 11 mRNA [3]; [9]): 88%
8 | 412212 (antisense e[5mC]*e[5mC]*eG*eG*eG*dA*dT*dG*dA*dT*dG*dA*dG*dT*dG*e[5mC]*eA*eG*eA*eT) [compound 412212] | 88% | 28% | 45% | 59% | 73% | 88% | 25 nM | – | – | – | – | – | – | – | – | % inhibition (human Factor 11 mRNA [3]; HepG2 cells, lipofectin, gapmers targeted to nucleobases 1018 to 1042 of SEQ ID NO: 1): 89%
